Measured values as given in patent publication US8084431B2, “Method for inhibiting activation of macrophages, inhibiting formation of osteoclasts, inhibiting function of osteoclasts, and/or activating osteoblasts” (China Medical University, priority 2008, dated 2011).
Where two headings read alike, the source gives them in different places.

What was measured:
[1] = system: MC3T3-E1 cells; assay: Survival rate of osteoblast precursor cells MC3T3-E1 (MTS); assay type: cell-based; settings: 3 days; for survival rate Experimental Group VI: with Vitamin C and β-glycerophosphatase; for survival rate Experimental Group V: without differentiation inducers
Procedure: MC3T3-E1 cells (American Type Culture Collection, Manassas, Va., USA) are the precursor cells of osteoblasts. A suitable differentiation inducer can be added into culture plates containing MC3T3-E1 cells to observe the later stage of the differentiation process of osteoblasts.
Besides various concentrations of kinsenoside as the above experiment, […] MC3T3-E1 cells, and the MC3T3-E1 cells were incubated for 3 days.

[2] = system: MMP-9 (metalloproteinases 9); assay: RT-PCR of MMP-9 mRNA in RANKL-treated macrophages RAW 264.7; assay type: cell-based; settings: kinsenoside 50 μM, RANKL 50 ng/ml, 24, 48, 72 hours, FIG. 8A and 8B
Procedure: As osteoclasts are activated, they RELEASE MMP-9 (metalloproteinases 9) to erode collagen in bones. Using RT-PCR to analyze the expression of mRNA of MMP-9, one can see if kinsenoside inhibits the bone resorption activity of osteoclasts.
As macrophages RAW 264.7 were incubated in culture plates containing 50 ng/ml of RANKL, 50 μM of kinsenoside was added thereto. After the macrophages RAW 264.7 were incubated for 24, 48, and 72 hours, mRNAs were extracted to analyze the expression of MMP-9 with RT-PCR. […] Thus, kinsenoside can inhibit the bone resorption of osteoclasts.

[3] = system: ICR mice administrated with lipopolysaccharides; assay: Septic shock death of ICR mice induced by high dosage of lipopolysaccharides; assay type: in vivo; settings: kinsenoside 100 or 300 mg/kg intraperitoneal, LPS 80 mg/kg, FIG. 4
Procedure: ICR mice were intraperitoneally administrated with various dosages (100 mg/kg or 300 mg/kg) of kinsenoside. 30 minutes later, the ICR mice were intraperitoneally administrated with 80 mg/kg of lipopolysaccharides, and the death rate of the ICR mice within 72 hours was observed.

[4] = system: macrophages RAW 264.7; assay: Formation of osteoclasts from macrophages RAW 264.7 (RANKL, TRAP stain); assay type: cell-based; settings: Mus musculus, RAW264.7, 120 h, RANKL 50 ng/ml, 5 days, read-out: inhibition percentage
Procedure: If macrophages RAW 264.7 are incubated in culture plates containing 50 ng/ml of differentiation inducer, RANKL, they usually differentiate into osteoclasts after 5 days. In Experiment H, various concentrations (0, 10, and 50 μM) of kinsenoside or 10 nM of estradiol were added into culture plates containing macrophages RAW 264.7, respectively, and the macrophages RAW 264.7 were incubated for 5 days. […] The number of osteoclasts was counted, and the inhibition percentage of the formation of osteoclasts was calculated with the following formula, and the result is shown in Table 11. Inhibition percentage=(the number of osteoclasts in the control group−the number of osteoclasts in the experimental group)/the number of osteoclasts in the control group×100%

[5] = system: macrophages in the peritoneal cavity of ICR mice; assay: NO release of LPS-induced peritoneal macrophages (Griess reagent); assay type: cell-based; settings: LPS 1 μg/ml, 24 hours
Procedure: By means of peritoneal cavity injection, ICR mice (BioLASCO, Co., Ltd., Taiwan) were administrated with 5 wt % of thioglycollate (Becton Dickinson, Franklin Lakes, N.J.). […] Then, kinsenoside (10, 25, 50 μM) was added into the culture plates, and the macrophages were incubated for 30 minutes. Lipopolysaccharides (1 μg/ml, Sigma) were added into the plates to induce the inflammatory reaction of macrophages. 24 hours later, the supernatant was collected, and the content of nitric oxide was determined with a Griess reagent (Sigma).

[6] = system: macrophages RAW 264.7; settings: mouse, 3 days
Procedure: After 3 days, the survival rate of the macrophages RAW 264.7 was measured with MTS (3-(4,5-di-methylthiazol-2-yl)-5-(3-carboxymethoxyphenyl)-2-(4-sulfophenyl)-2H-tetrazolium) (Promega, Madison, Wis., USA), and the result is shown in Table 10.
The mechanism of MTS is that a live cell has the activity of dehydrogenase, so MTS can be reduced to become a red purple soluble product, and the product has the highest absorbance at the wavelength of 490 nm. Therefore, the survival rate of cells can be determined according to the absorbance, and the survival rate of cells can be calculated with the following formula: Survival rate=the absorbance of the experimental group/the absorbance of the control group×100%

[7] = system: MC3T3-E1 cells; assay: Mineralization of MC3T3-E1 cells (Alizarin red-S); assay type: cell-based; settings: 14 days
Procedure: 50 μg/ml of Vitamin C and 10 μM of β-glycerophosphatase were added into culture plates containing MC3T3-E1 cells, and the MC3T3-E1 cells were incubated for 14 days. After 14 days, the mineralization of the MC3T3-E1 cells occurred, and led to the deposition of calcium. Alizarin red-S (Sigma) was used to measure the content of calcium (see Gregory C A, Gunn W G, Peister A, Prockop D J. 2004. An Alizarin red-based assay of mineralization by adherent cells in culture: comparison with cetylpyridinium chloride extract. Anal. Biochem. 329, 77-84).
50 μg/ml of Vitamin C and 10 μM of 0-glycerophosphatase were added into culture plates containing MC3T3-E1 cells, and various concentrations (0, 100, and 1,000 nM) of kinsenoside were added into the culture plates, respectively. The MC3T3-E1 cells were incubated for 14 days, and Alizarin red-S was used to measure the content of calcium.

[8] = system: myelocytes of rats; assay: Formation of osteoclasts from rat myelocytes (RANKL + M-CSF, TRAP stain); assay type: cell-based, Wistar rats; settings: for inhibition at 5 µM / inhibition at 25 µM / inhibition at 50 µM / inhibition at 100 µM: Rattus norvegicus, Osteoclast, 216 h, 9 days
Procedure: Myelocytes were first prepared. Male Wistar rats with the body weight of 250 g to 300 g were used to prepare myelocytes. Under the condition of anaesthesia, the femurs of the rats were taken, and myelocytes were washed out with a phosphate buffer solution. […] After incubation for 9 days, monocytes in the marrow differentiated into osteoclasts. The osteoclasts were stained with a TRAP (tartrate-resistant acid phosphatase) stain reagent (Sigma, Louis, Mo., USA), and the number of the osteoclasts was calculated. Besides the same RANKL and M-CSF as the control group, various concentrations (0, 5, 25, 50, and 100 μM) of kinsenoside or 10 nM of estradiol (Wako, Japan) were added into culture plates, respectively. Then, rat myelocytes were incubated for 9 days, and the situation that the myelocytes differentiated into osteoclasts was observed. The percentage of the inhibition effect of kinsenoside and estradiol on the formation of osteoclasts was calculated with the following formula, and the result is shown in Table 9. Inhibition percentage (%)=(the number of osteoclasts of the control group−the number of osteoclasts of the experimental group)/the number of osteoclasts of the control group×100% In addition to the aforesaid RANKL, kinsenoside, and/or estradiol, the inhibitor of estradiol, Fulvestrant (Sigma, Louis, Mo., USA) (1 nM), was also added into culture plates. Then, rat myelocytes were incubated for 9 days, and the situation that the myelocytes differentiated into osteoclasts was observed. The percentage of the inhibition effect of kinsenoside on the formation of osteoclasts was calculated, and the result is shown in Table 9.

[9] = with Fulvestrant 1 nM, read-out: inhibition percentage Experimental Group II
[10] = without Fulvestrant, read-out: inhibition percentage Experimental Group I

**Q.** With `O=C1C[C@@H](OC2OC(CO)C(O)C(O)C2O)CO1` (stereo partly drawn) [kinsenoside, 3-(R)-3-β-D-glucopyranosyloxy-butanolide] as the compound, how does the “survival rate Experimental Group VI” value ([1]; 10 nM) read?
**A.** 98.7 ± 7.8%

**Q.** What about the “survival rate Experimental Group V” value ([1]; 10 nM) of the same compound?
**A.** 91.5 ± 3.0 %

**Q.** What about the “survival rate Experimental Group VI” value ([1]; 100 nM) of the same compound?
**A.** 95.3 ± 3.3%

**Q.** What about the “survival rate Experimental Group V” value ([1]; 100 nM) of the same compound?
**A.** 90.8 ± 2.9 %

**Q.** What about the “survival rate Experimental Group VI” value ([1]; 1000 nM) of the same compound?
**A.** 95.0 ± 4.5%

**Q.** And the “survival rate Experimental Group V” value ([1]; 1000 nM)?
**A.** 89.5 ± 6.0 %

**Q.** And the “expression of mRNA of MMP-9” value [2]?
**A.** inhibits the expression of mRNA of MMP-9

**Q.** And the “death rate of the ICR mice within 72 hours” value [3]?
**A.** inhibits the death rate

**Q.** What about the inhibition at 10 µM ([4]; 10 μM) of the same compound?
**A.** 19 ± 9%

**Q.** And the inhibition at 25 µM ([4]; 25 μM)?
**A.** 59 ± 8%

**Q.** And the inhibition at 50 µM ([4]; 50 μM)?
**A.** 71 ± 3%

**Q.** And the NO concentration ([5]; kinsenoside 10 μM)?
**A.** 26.7 ± 3.2 µM

**Q.** And the NO concentration ([5]; kinsenoside 25 μM)?
**A.** 20.2 ± 2.1 µM

**Q.** And the NO concentration ([5]; kinsenoside 50 μM)?
**A.** 16.2 ± 1.0 µM

**Q.** What about the “survival rate Experimental Group III” value ([6]; 10 μM) of the same compound?
**A.** 117.5 ± 8.0%

**Q.** And the “survival rate Experimental Group IV” value ([6]; 10 μM)?
**A.** 100.3 ± 4.0%

**Q.** And the “survival rate Experimental Group III” value ([6]; 25 μM)?
**A.** 139.9 ± 4.9%

**Q.** And the “survival rate Experimental Group IV” value ([6]; 25 μM)?
**A.** 105.0 ± 2.4%

**Q.** What about the “survival rate Experimental Group III” value ([6]; 50 μM) of the same compound?
**A.** 136.9 ± 4.8%

**Q.** And the “survival rate Experimental Group IV” value ([6]; 50 μM)?
**A.** 101.0 ± 0.3%

**Q.** And the “Alizarin red-S” value ([7]; 10 nM)?
**A.** 137 ± 29%

**Q.** And the “Alizarin red-S” value ([7]; 100 nM)?
**A.** 137 ± 27%

**Q.** And the “Alizarin red-S” value ([7]; 1000 nM)?
**A.** 174 ± 42 %

**Q.** What about the “effect of Fulvestrant on the inhibition of osteoclast formation” value ([8]; Fulvestrant 1 nM, summary of Table 9) of the same compound?
**A.** no inhibition effect

**Q.** What about the inhibition at 5 µM [8, 9] of the same compound?
**A.** 12 ± 7.5%

**Q.** And the inhibition at 5 µM [8, 10]?
**A.** 15.3 ± 7.2%

**Q.** And the inhibition at 25 µM [8, 9]?
**A.** 16.3 ± 6.7%

**Q.** And the inhibition at 25 µM [8, 10]?
**A.** 25 ± 2%

**Q.** What about the inhibition at 50 µM [8, 9] of the same compound?
**A.** 65.7 ± 3.8%

**Q.** What about the inhibition at 50 µM [8, 10] of the same compound?
**A.** 50.3 ± 4.2%

**Q.** And the inhibition at 100 µM [8, 9]?
**A.** 76 ± 3.6%

**Q.** What about the inhibition at 100 µM [8, 10] of the same compound?
**A.** 78.1 ± 2.8%
